Results: patent publication US20230123334A1, “AMINO LIPID COMPOUND, PREPARATION METHOD THEREFOR, AND APPLICATION THEREOF” (SHENZHEN SHENXIN BIOTECHNOLOGY CO., LTD., priority 2020, published 2023)

tested on: HEK293 cells; test: Preliminary screening as DNA vectors, GFP transfection of HEK293 cells; format: cell-based; settings: amino lipid/DOPE liposome with 75 ng plasmid DNA (psin-EGFP-IRES-Puro); number of GFP-expressing cells divided by total nuclei (Hoechst)
Procedure, shortened: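 Lipid + DOPE liposomes (NaOAc, pH 5.6) complexed w/ 75 ng psin-EGFP-IRES-Puro, 30 min RT; added to 3-5×10^4 HEK293/well, 37° C. Hoechst 0.2 μg/mL at 20-24 h, imaged after further 20-24 h. Efficiency = GFP+ cells / total nuclei.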

Row | SMILES | Absolute DNA transfection efficiency in HEK293 cells
1 | CCCCCCCCCCCCCCCCNc1nc(NCCN2CCN(C)CC2)nc(SCCCCCCCCCCCCCC)n1 [S14N16 D5] | 0.9%
2 | CCCCCCCCCCCCCCCCSc1nc(NCCCCCCCCCCCCCCC)nc(NCC2CCN(C)CC2)n1 [S16N15 D10] | 0.2%
3 | CCCCCCCCCCSc1nc(NCCN2CCCCC2)nc(SCCCCCCC)n1 [S7S10 D4] | 8.1%
4 | CCCCCCCCCCCCNc1nc(NCCCN(C)C)nc(SCCCCCCCCC)n1 [S9N12 D6] | 70.5%
5 | CCCCCCCCCCCCCCCCCCSc1nc(NCCN2CCCC2)nc(N(CCCCCCCCCCCC)CCCCCCCCCCCC)n1 [S18^2N12 D3] | 0.2%
6 | CCCCCCCCSc1nc(NCC2CCN(C)CC2)nc(SCCCCCCCC)n1 [S8S8 D10] | 27.9%
7 | CCCCCCCCCSc1nc(NCCCN2CCN(C)CC2)nc(SCCCCCCC)n1 [S7S9 D9] | 17.1%
8 | CCCCCCCCCSc1nc(NCCCCCCC)nc(NCCCN2CCN(C)CC2)n1 [S9N7 D9] | 12.1%
9 | CCCCCCCCCCCCCCCSc1nc(NCCCCCCCCCCCCC)nc(NCCCN2CCOCC2)n1 [S15N13 D8] | 0.2%
10 | CCCCCCCCCCCCCCCSc1nc(NCCN2CCOCC2)nc(SCCCCCC)n1 [S6S15 D2] | 8.4%
11 | CCCCCCCCCCCCCCCCCCNc1nc(NCCN2CCCCC2)nc(SCCCCCCC)n1 [S7N18 D4] | 3.2%
12 | CCCCCCCCCCCCCCCSc1nc(NCCN2CCOCC2)nc(N(CCCCCCCCCCCC)CCCCCCCCCCCC)n1 [S15^2N12 D2] | 0.0%
13 | CCCCCCCCCCCCCNc1nc(NCCN(C)C)nc(SCCCCCCCCCCCC)n1 [S12N13 D1] | 1.4%
14 | CCCCCCCCCCCCCCCSc1nc(NCCCCCCC)nc(NCCN2CCOCC2)n1 [S15N7 D2] | 23.0%
15 | CCCCCCCCCCCCCCCNc1nc(NCCCN2CCN(C)CC2)nc(SCCCCCCCCCCCCCCC)n1 [S15N15 D9] | 0.5%
16 | CCCCCCCCCSc1nc(NCCN2CCOCC2)nc(SCCCCCCC)n1 [S7S9 D2] | 28.8%
17 | CCCCCCCCCCCCCCCCCCNc1nc(NCCN2CCCC2)nc(SCCCCCCC)n1 [S7N18 D3] | 16.1%
18 | CCCCCCCCCCCCCCSc1nc(NCCCCCCC)nc(NCCN2CCOCC2)n1 [S14N7 D2] | 18.7%
19 | CCCCCCCCCCCCCCSc1nc(NCCCCCCC)nc(NCCN2CCN(C)CC2)n1 [S14N7 D5] | 16.3%
20 | CCCCCCCCCCCCCCSc1nc(NCCCCCC)nc(NCCN2CCCCC2)n1 [S14N6 D4] | 2.5%
21 | CCCCCCCCCCCNc1nc(NCCN(CC)CC)nc(SCCCCCCCCC)n1 [S9N11 D7] | 15.7%
22 | CCCCCCCCCCSc1nc(NCCN2CCOCC2)nc(SCCCCCCC)n1 [S7S10 D2] | 23.6%
23 | CCCCCCCCCCCCCCCCNc1nc(NCCN(CC)CC)nc(SCCCCCCCCCCCCCC)n1 [S14N16 D7] | 1.3%
24 | CCCCCCCCCCCSc1nc(NCCCCCC)nc(NCCN2CCCCC2)n1 [S11N6 D4] | 29.0%

Row | SMILES | Absolute DNA transfection efficiency in HEK293 cells
25 | CCCCCCCCCCCSc1nc(NCCN2CCCC2)nc(SCCCCCCC)n1 [S7S11 D3] | 9.7%
26 | CCCCCCCCCCCCCCCNc1nc(NCCN(C)C)nc(SCCCCCCCCCCCC)n1 [S12N15 D1] | 0.8%
27 | CCCCCCCCCCCCNc1nc(NCCN2CCCC2)nc(SCCCCCCC)n1 [S7N12 D3] | 17.4%
28 | CCCCCCCCCCCCCCSc1nc(NCCCCCCCCCCC)nc(NCCN2CCCC2)n1 [S14N11 D3] | 25.2%
29 | CCCCCCCCCCCCCCCNc1nc(NCCN(CC)CC)nc(SCCCCCC)n1 [S6N15 D7] | 1.2%
30 | CCCCCCCCCCCCCCCNc1nc(NCCCN2CCN(C)CC2)nc(SCCCCCCCCCCC)n1 [S11N15 D9] | 7.0%
31 | CCCCCCCCCCCCCCCCCCSc1nc(NCCCCCC)nc(NCCN2CCCCC2)n1 [S18N6 D4] | 7.2%
32 | CCCCCCCNc1nc(NCCCN2CCN(C)CC2)nc(SCCCCCC)n1 [S6N7 D9] | 0.2%
33 | CCCCCCCCCCCCCCCNc1nc(NCCCN(C)C)nc(SCCCCCCC)n1 [S7N15 D6] | 15.9%
34 | CCCCCCCCCCCCNc1nc(NCCN(C)C)nc(SCCCCCCCCCC)n1 [S10N12 D1] | 1.8%
35 | CCCCCCCCCCCCNc1nc(NCCN(CC)CC)nc(SCCCCCCCCCC)n1 [S10N12 D7] | 5.9%
36 | CCCCCCCCCCSc1nc(NCCCCCC)nc(NCCN(CC)CC)n1 [S10N6 D7] | 6.6%
37 | CCCCCCCCCCCCCCSc1nc(NCCCCCC)nc(NCCN(C)C)n1 [S14N6 D1] | 24.1%
38 | CCCCCCCCCCCCSc1nc(NCCCCCCC)nc(NCCN(CC)CC)n1 [S12N7 D7] | 3.4%
39 | CCCCCCCCCCCCCCCCCCSc1nc(NCCCCCCCCCCC)nc(NCCCN(C)C)n1 [S18N11 D6] | 5.2%
40 | CCCCCCCCCCCCCNc1nc(NCCCN2CCN(C)CC2)nc(SCCCCCCC)n1 [S7N13 D9] | 36.9%
41 | CCCCCCCCCCCCCCCCCCNc1nc(NCCCN2CCN(C)CC2)nc(SCCCCCCCCCCCCCCC)n1 [S15N18 D9] | 0.4%
42 | CCCCCCCCCCCCCCCNc1nc(NCCN2CCCCC2)nc(SCCCCCCCCC)n1 [S9N15 D4] | 4.2%
43 | CCCCCCCCCCCCCCCCNc1nc(NCCN2CCCCC2)nc(SCCCCCCCCC)n1 [S9N16 D4] | 8.1%
44 | CCCCCCCCCSc1nc(NCCN(C)C)nc(SCCCCCCC)n1 [S7S9 D1] | 10.8%
45 | CCCCCCCCCCCSc1nc(NCCN(C)C)nc(SCCCCCCCC)n1 [S8S11 D1] | 9.2%
46 | CCCCCCCCCCCCCCCCCCSc1nc(NCCCCCCCCCCCCC)nc(NCCN2CCOCC2)n1 [S18N13 D2] | 0.0%
47 | CCCCCCCCCCCCSc1nc(NCCCCCC)nc(NCCN(CC)CC)n1 [S12N6 D7] | 6.5%
48 | CCCCCCCCCCCNc1nc(NCCCN(C)C)nc(SCCCCCCCCC)n1 [S9N11 D6] | 55.4%

Row | SMILES | Absolute DNA transfection efficiency in HEK293 cells
49 | CCCCCCCCCCCCCCCCCCNc1nc(NCCN(C)C)nc(SCCCCCCCCCC)n1 [S10N18 D1] | 9.0%
50 | CCCCCCCCCCCCCCCCSc1nc(NCCCCCCCCCCC)nc(NCCN2CCCC2)n1 [S16N11 D3] | 16.6%
51 | CCCCCCCCCCCCCCCCNc1nc(NCC2CCN(C)CC2)nc(SCCCCCCC)n1 [S7N16 D10] | 15.8%
52 | CCCCCCCSc1nc(NCCCCCC)nc(NCCN(C)C)n1 [S7N6 D1] | 17.6%
53 | CCCCCCCCCCCCCCCNc1nc(NCCN2CCN(C)CC2)nc(SCCCCCCCCCCC)n1 [S11N15 D5] | 9.9%
54 | CCCCCCCCCCCCSc1nc(NCCCCCCCCC)nc(NCCCN2CCN(C)CC2)n1 [S12N9 D9] | 10.9%
55 | CCCCCCCCSc1nc(NCCN(CC)CC)nc(SCCCCCCCC)n1 [S8S8 D7] | 10.1%
56 | CCCCCCNc1nc(NCCCN(C)C)nc(SCCCCCC)n1 [S6N6 D6] | 0.0%
57 | CCCCCCCCCCCCCCCCCCNc1nc(NCC2CCN(C)CC2)nc(SCCCCCCCCCCCCCC)n1 [S14N18 D10] | 0.1%
58 | CCCCCCCCCCCCSc1nc(NCCCN2CCN(C)CC2)nc(N(CCCCCCCCCCCC)CCCCCCCCCCCC)n1 [S12^2N12 D9] | 0.1%
59 | CCCCCCCCCCCCSc1nc(NCCCCCCC)nc(NCCCN(C)C)n1 [S12N7 D6] | 11.2%
60 | CCCCCCCCCCCCCCCNc1nc(NCCN2CCOCC2)nc(SCCCCCCCCC)n1 [S9N15 D2] | 7.3%
61 | CCCCCCCCCCCCNc1nc(NCCN2CCN(C)CC2)nc(SCCCCCC)n1 [S6N12 D5] | 25.9%
62 | CCCCCCCCCCCCCCCCSc1nc(NCCCCCCC)nc(NCCN2CCCCC2)n1 [S16N7 D4] | 6.9%
63 | CCCCCCCCCCCCNc1nc(NCCN2CCN(C)CC2)nc(SCCCCCCCCCCCC)n1 [S12N12 D5] | 3.5%
64 | CCCCCCCCNc1nc(NCCCN(C)C)nc(SCCCCCCCC)n1 [S8N8 D6] | 8.7%
65 | CCCCCCCCCCCCCCCCSc1nc(NCCCCCCCC)nc(NCCCN2CCN(C)CC2)n1 [S16N8 D9] | 10.9%
66 | CCCCCCCCCCCCCCCSc1nc(NCC2CCN(C)CC2)nc(N(CCCCCCCCCCCC)CCCCCCCCCCCC)n1 [S15^2N12 D10] | 1.0%
67 | CCCCCCCCCCCSc1nc(NCCCCCCC)nc(NCCN(C)C)n1 [S11N7 D1] | 27.6%
68 | CCCCCCCCCCCCCCCNc1nc(NCCCN(C)C)nc(SCCCCCCCCCCCC)n1 [S12N15 D6] | 0.9%
69 | CCCCCCCCCCCCCCCCNc1nc(NCCCN2CCN(C)CC2)nc(SCCCCCCCCCCCCCCC)n1 [S15N16 D9] | 0.2%
70 | CCCCCCCCCCCCCCCCCCSc1nc(NCCCCCCCCCCCCC)nc(NCCN(C)C)n1 [S18N13 D1] | 1.3%
71 | CCCCCCCCCSc1nc(NCCCN2CCOCC2)nc(SCCCCCC)n1 [S6S9 D8] | 2.0%
72 | CCCCCCCCCCCCCCCSc1nc(NCCCCCCCCCCCC)nc(NCCN(CC)CC)n1 [S15N12 D7] | 5.9%
